Data on 1 molecule can be found in patent US12558358B2 (UNIVERZITA PALACKEHO V OLOMOUCI, priority 2019, dated 2026).

For data set [1], the system named is Bmal1 gene expression (mBmal1-Luc reporter). Briefly: mBmal1-Luc reporter expression in U2OS cells (Example 4). The data set is classed as cell-based, human. To be noted: first 5-15 hours after application, FIG. 4. The procedure: (§1) Human osteosarcoma U2OS cells were grown in standard DMEM with 10% fetal calf serum. U2OS cells were transduced with lentiviral particles containing the reporter pLV6-Bmal1-Luc (S. Brown, Addgene plasmid #68833) and selected under Blasticidin. The cell line was clonally expanded and a single monoclonal cell line was used for further experiments. Cells were cultured in a 384-well plate in growth medium to 90+% confluence. Test compound or vehicle (DMSO) was applied to recording medium with 100 U/ml penicillin, 100 μg/ml streptomycin, 1×GlutaMAX (ThermoFisher, Waltham, MA, USA), 10% fetal calf serum (Sigma) and 0.1 mM Luciferin-EF (Promega Madison, WI, USA). Luminescence was recorded every hour for additional 144 hours in Luminoskan Ascent (ThermoFisher).

Data set [2] has as its system U2OS cells with mBmal1-Luc reporter. Description: Combination with other chronotherapeutics, mBmal1-Luc U2OS cells (Example 6). The format is cell-based, human. The procedure:
as §1, with “Test compounds” for “Test compound”, “(DMSO) were” for “(DMSO) was”, “(ThermoFisher). Circadian rhythm analysis was performed by cosinor analysis.” for “(ThermoFisher).”

Data set [3] deals with retinal epithelium cells ARPE-19. The format is cell-based. To be noted: human, 72 h. The procedure:
(§2) It is used for viability testing of eukaryotic cells. The effect of the compounds in several concentrations (maximum concentration of 100 microM and 3 three-fold dilutions) on viability of skin fibroblasts BJ and retinal epithelium cells ARPE-19 was evaluated after 72 hour treatment. The cells were maintained in standard cultivation medium DMEM with 10% fetal bovine serum. 5000 cells were seeded into 96-well plates 24 hours prior to the addition of test compound. DMSO vehicle was used as a negative control. After 72 hours, 1000-times concentrated solution of resazurin in DMSO was added to the cells zo the final concentration of 0.0125 mg/ml. Fluorescence (ex=570 nm, em=610 nm) was measured after 1 hour (ARPE-19) or 3 hours (BJ) of incubation. IC50 values were calculated from dose response curves using drc library for R programming environment.

Data set [4] deals with skin fibroblasts BJ. The format is cell-based. To be noted: human, 72 h. The procedure: as §2
Data set [5] in a line: in vitro. The format is in vitro ADME. The procedure:
(§3) This system is further referred to as RF-MS. Preparation of the lyophilized samples for the analysis is described in the sections dedicated to the individual methods. Lyophilized samples were dissolved in the mobile phase (95% water, 5% acetonitrile, 0.1% formic acid) with respective internal standards. The dissolved samples were aspired directly from 96-well plates into a 10 μL sample loop and passed through a C4 cartridge (Agilent Technologies) with solvent A (95% water, 0.01% formic acid, 5% acetonitrile) at a flow rate of 1.5 mL/minute for 3 seconds. After the desalting step, the analyte retained on the cartridge was eluted with solvent B (95% acetonitrile, 5% 0.01% formic acid) to the mass spectrometer at a flow rate of 0.4 mL/minute for 7 seconds. Mass spectrometry was carried out using electrospray ionization in the positive ion mode. Daughter ion peaks were identified using a multiple-reaction monitoring protocol.
Caco-2 (American Tissue Type Collection) a MDR1-MCDK (Netherlands Cancer Institute) were cultured in DMEM medium with 10% fetal bovine serum. […]
Calculations: The apparent permeability coefficient was calculated as Papp=(dQ/dt)/(C0×A), where dQ/dt is the rate of permeation of the drug across the cell monolayer, C0 is the donor compartment concentration at time t=0 and A is the area of the cell monolayer. […]

A short description of data set [6]: in vitro. The format is in vitro ADME. To be noted: PAMPA, pH 7.4. On the procedure:
as §3
The parallel artificial membrane permeability assay (PAMPA) was performed using the Millipore MultiScreen filter MultiScreen-IP Durapore 0.45 μm plates and receiver plates (Merck Millipore) according to the manufacturer's protocol PC040EN00. […]
Calculations: The relative permeability log Pe was calculated as log Pe=log{Cx−ln(1−drugA/drugE)}, where C=(VA×VD)/{(VD+VA)×A×T}. […]
On the technique in general: The PAMPA barrier holds no transporters, so it reflects passive diffusion.

In the case of `c1coc(CNc2ncnc3nc[nH]c23)c1` [N-(furan-2-ylmethyl)-7H-purin-6-amine], the Bmal1 gene expression entry in data set [1] is given as “affects Bmal1 gene expression”. In addition, the “effect on the length of the circadian period in combination with compounds that extend the circadian period” value in data set [2] (50 μM together with PF670, T0901317, KL001, rosiglitazon, SR9009, FIG. 6A-6E) is “additive or even synergistic effect”. Besides, the “effect on the period when added to harmine” value in data set [2] (50 μM together with harmine, FIG. 6F) is on record as “caused a decrease of the period”. Besides, the 10% effect concentration (IC10) in data set [3] and in data set [4] was above 100 µM throughout. The Papp at 1 h, 10 μM in data set [5] (dog, MDCK-MDR1, pH 7.4) amounted to 315 ×10⁻⁶ cm/s. Further, the Papp at 2 h, 10 μM in data set [5] (human, Caco-2, pH 7.4) amounted to 76 ×10⁻⁶ cm/s. The molecule further showed an apparent permeability coefficient (Papp) at 18 h, 20 AM in data set [6] of 5.01 ×10⁻⁶ cm/s.

For orientation: IC10 means the concentration needed for an effect of 10%. As usually defined, the Papp is a coefficient for how fast a substance crosses the barrier. Read a low Papp as slow passage.
